From patent publication US12083134B2, “Anacardic acid for neural repair” (Vanderbilt University, priority 2018, dated 2024)

Key:
IL-33 expression in OPCs = test: q-PCR on the induction of IL-33 in OPCs cultured with AA; type: cell-based, rat; conditions: 3 h, relative to GAPDH, vehicle = 1.00
Method: (§1) The effect of AA on the expression of myelin genes, MBP, and IL-33 was examined. […] Natarajan et al., PLOS One, 11(3):e0152163 (2016); Sriram et al., Neurology, Abstract presented at the American Academy of Neurology, 2016 (2016). The studies were done in OPCs obtained from rat pups. OPCs were treated with AA (2.5 μM) for 3 hours and message levels were quantified using qPCR analysis. OPCs treated with AA induced the major myelin genes Mbp, Mog and Plp.
The expression of IL-33 induced by AA in OPCs was also examined. […] (FIG. 3). The data is expressed as fold change compared to the control protein GAPDH.

OPCs = test: Maturation of OPCs to mature oligodendrocytes, MBP staining after 14 days culture with AA; type: cell-based, rat; conditions: AA 1 μM
Method: FIG. 6 provides images showing the increased differentiation of OPCs to mature oligodendrocytes following culture with AA (Ana). OPCs were isolated from rat pups and were cultured with AA where 1 μM of AA was added to the culture every other day for 14 days. At the end of the experiment, the cells were stained and the amount of MBP was assessed using ImagJ software.
The expression of MBP, a marker for myelin maturation in OPCs, was investigated in the presence and absence of AA (1 μM) following culture with AA for 14 days.

[1] = test system: cuprizone induced demyelination; test: Cuprizone induced model of demyelination, myelin staining of corpus callosum; type: in vivo, mice
Method: Mice were administered cuprizone for nine weeks, and starting at week 7, mice were treated with 12.5 mg/kg AA daily for three additional weeks. Mice were sacrificed at the end of week 9. […] The data are expressed as the mean pixel intensity of LFB staining normalized to controls measured at two non-overlapping regions of the corpus callosum.
FIG. 11 provides images showing the staining of myelin using LFB stain (top panel) and immunostaining with anti MBP antibodies (bottom panel) in coronal sections of the brain in a 9-week study of naïve (left), cuprizone treated (middle), and cuprizone+AA treated (12.5 mg/kg/day) mice where the cuprizone+AA treated mice were treated with AA in weeks 7-9 of the study. The Y axis represents the mean pixel intensity of staining normalized to controls for LFB and immunostaining for MBP.
The cuprizone induced model of demyelination is a model for toxic demyelination. Torkildsen et al., Acta Neurol Scand Suppl. 188:72-6 (2008); Bai et al., Exp Neurol, 283(Pt A): 330-40 (2016). Cuprizone induces extensive demyelination in large white matter tracts of the CNS. Because the corpus callosum is the largest white matter tract in the brain, it is often used to study demyelination/remyelination in the cuprizone model. In the cuprizone model, animals are fed with cuprizone that causes cell death of oligodendrocytes. […] Deshmukh et al., Nature, 502(7471):327-32 (2014); Magalon et al., Ann Neurol, 71(2):213-26 (2012). Since the model is non-immune mediated, neuro-reparative therapies which promote remyelination can be tested without the interference of markers of inflammation. Lassmann and Bradl, Acta Neuropathol, 133(2):223-44 (2017).
The efficacy of any potential drug is only apparent for a short period of time after cuprizone withdrawal and before the natural process of remyelination catches up. Following cuprizone withdrawal, there is complete remyelination after 6 weeks. Thus, a study was conducted where mice were administered cuprizone in their chow for nine weeks and either AA or a vehicle were administered with the cuprizone starting at 7 weeks. Previous studies have shown that chow mixed with 0.2% cuprizone causes wide spread demyelination and demyelination is seen in the corpus callosum after 6 to 8 weeks on cuprizone. At the beginning of week 7, mice received 12.5 mg/kg of AA dissolved in DMSO sc daily for an additional three weeks. Control mice received an equal volume of DMSO (vehicle). Equal numbers of mice (5/group) were sacrificed and the amount of myelin was determined by staining with luxol fast blue (“LFB”) (chemical stain for myelin) or by staining with anti MBP antibodies at the end of weeks 7, 8 and 9. […]

MBP in OPCs = test: Western blot of MBP in OPCs cultured with AA for 10 days; type: cell-based, rat
Method: To further verify the ability of AA to induce MBP protein synthesis, 4×10^6 OPCs were cultured in poly-D lysine coated culture dishes with and without AA for 10 days. The AA concentrations that were studied were as follows: 1, 2.5, 5, 7.5, and 10 μM. The growth medium was changed every three days. […] Upon culture in vitro, OPCs differentiated and became myelin expressing cells, a process which took about 7-14 days.

[2] = test system: myelin genes Mbp, Mog and Plp and transcription elements Sp1, Sox10 and Purα in OPCs; test: qPCR analysis of myelin gene expression in OPCs treated with AA; type: cell-based, rat; conditions: AA 2.5 μM, 3 hours
Method: Mbp=myelin basic protein, Plp=proteolipoprotein, Mog=myelin oligodendrocyte glycoprotein.
as §1

CCCCCCCCCCCCCCCc1cccc(O)c1C(=O)O [AA, anacardic acid]
Fold change of IL-33 expression (IL-33 expression in OPCs; AA 2.5 μM): 8.54 fold
Fold change of IL-33 expression (IL-33 expression in OPCs; AA 5 μM): 4.77 fold
increase in the expression of MBP vs normal growth medium (OPCs): 2.1 fold
number of oligodendrocytes vs vehicle treated mice ([1]; AA 12.5 mg/kg/day): no difference
increase in LFB staining of corpus callosum vs control mice ([1]; end of week 9, three weeks of AA 12.5 mg/kg sc daily, P<0.02): 10%
expression of myelin vs control mice ([1]; end of weeks 7 and 8, one or two weeks of AA 12.5 mg/kg sc daily): no differences
increase in MBP staining (anti MBP antibodies) vs control mice ([1]; week 9, AA 12.5 mg/kg/day weeks 7-9, P=0.02): 17%
increase in the expression of MBP (image analysis, FIG. 4) (MBP in OPCs; OPCs cultured with AA, concentration not given): 2.4 fold
level of MBP (Western blot) (MBP in OPCs; OPCs, AA 1, 2.5, 5, 7.5 and 10 μM, 10 days): increased the level of MBP in a dose dependent manner
expression of major myelin genes Mbp, Mog and Plp (message levels, qPCR) [2]: induced
expression of transcription elements Sp1, Sox10 and Purα that bind the Mbp promoter (qPCR) [2]: upregulation
